Assays:
Assay in all cases: drug sensitivity score (DSS) from 5-point dose-response viability curve (DSS (area-under-curve based score)); higher = more sensitive (stronger growth inhibition or killing); extreme values may be limits of the assay
Settings in all cases: exposure time: 72 h; concentration range: 5 concentrations over 10,000-fold range
[1] = tested on: Ovsaho
In short: (§1)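 Drug sensitivity scores were calculated in Breeze software for each cell line and drug pair; higher scores indicate more sensitivity. A score of zero indicates no response. The underlying assay used 384-well plates: drugs were placed by an Echo 550 acoustic dispenser at five concentrations spanning a 10,000-fold range, 1,500 ovarian cancer or normal ovarian cells were added per well, and cells were kept 3 days at 37°C, 5% CO2. Viability was then measured with CellTiter-Glo luminescence on a PHERAstar FS.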

[2] = tested on: CAOV3
In short: as §1

[3] = tested on: COV318
In short: as §1

[4] = tested on: JHOS2
In short: as §1

[5] = tested on: HOSE2C
In short: as §1

[6] = tested on: OV90
In short: as §1

[7] = tested on: OVCAR8
In short: as §1

[8] = tested on: HOSE1C
In short: as §1

[9] = tested on: OVCAR4
In short: as §1

[10] = tested on: OVCAR5
In short: as §1

[11] = tested on: Kuramochi
In short: as §1

[12] = tested on: COV362
In short: as §1

SMILES	drug sensitivity score [1]	drug sensitivity score [2]	drug sensitivity score [3]	drug sensitivity score [4]	drug sensitivity score [5]	drug sensitivity score [6]	drug sensitivity score [7]	drug sensitivity score [8]	drug sensitivity score [9]	drug sensitivity score [10]	drug sensitivity score [11]	drug sensitivity score [12]
CN(C)C(=O)c1cc2cnc(Nc3ccc(N4CCNCC4)cn3)nc2n1C1CCCC1 [Ribociclib]	0	0	0.2	2.9	0	0.6	0	0	0.6	2.3	0	0
CO[C@H]1C[C@@H]2CC[C@@H](C)[C@@](O)(O2)C(=O)C(=O)N2CCCC[C@H]2C(=O)O[C@H]([C@H](C)C[C@@H]2CC[C@@H](OP(C)(C)=O)[C@H](OC)C2)CC(=O)[C@H](C)/C=C(\C)[C@@H](O)[C@@H](OC)C(=O)[C@H](C)C[C@H](C)/C=C/C=C/C=C/1C [Ridaforolimus]	4.6	8.7	0.6	4.3	1	10.3	6.8	2.3	2.6	4.6	3.2	0
COc1cc(OC)c(/C=C/S(=O)(=O)Cc2ccc(OC)c(NCC(=O)O)c2)c(OC)c1 [Rigosertib]	18.9	23.4	11.7	11.5	20.8	20.2	25.4	28.4	10.9	17	14.9	9.8
C[C@H]1CNCCCN1S(=O)(=O)c1cccc2cncc(F)c12 [Ripasudil]	0	0	0	0	0.6	0	0	2	0	0	0	0
C=CC(=O)Nc1cccc(Nc2nc(Nc3ccc(N4CCN(C(C)=O)CC4)cc3OC)ncc2C(F)(F)F)c1 [Rociletinib]	6.9	7.9	2.6	2.9	6.8	5.5	5.8	4.2	3	7.5	3.6	3.3
O=C(CCCCCCNC(=O)c1cnc(N(c2ccccc2)c2ccccc2)nc1)NO [Rocilinostat]	1.9	5.2	2.7	1.6	5.7	6	7.1	9.3	1.4	6.9	3.3	0
C/C=C1\NC(=O)[C@H]2CSSCC/C=C/[C@H](CC(=O)N[C@H](C(C)C)C(=O)N2)OC(=O)[C@H](C(C)C)NC1=O [Romidepsin]	25.9	28.2	12.3	22.7	35.8	29.8	28.1	39.3	20.8	33.3	27.8	11.9
Cc1nc(C(=O)NCC(=O)O)c(O)c2ccc(Oc3ccccc3)cc12 [Roxadustat]	0	1.3	0	0.1	0	0	0	0	0.3	0	0.4	0
CN(C)C[C@@H]1CCn2cc(c3ccccc32)C2=C(C(=O)NC2=O)c2cn(c3ccccc23)CCO1 [Ruboxistaurin]	9.2	7	7.7	8.8	6.2	6.4	6.6	6.3	2.5	5.6	7.2	2.5
CNCc1ccc(-c2[nH]c3cc(F)cc4c3c2CCNC4=O)cc1 [Rucaparib]	0.4	0	0.5	0.7	0	1.7	1.8	0	0	1.2	0.3	0
N#CC[C@H](C1CCCC1)n1cc(-c2ncnc3[nH]ccc23)cn1 [Ruxolitinib]	0	0	0	1	0	0.1	0.1	0	0	0	0	0
CC(C)N(CCCNC(=O)Nc1ccc(C(C)(C)C)cc1)C[C@H]1O[C@@H](n2cc(Br)c3c(N)ncnc32)[C@H](O)[C@@H]1O [SGC0946]	0.1	0	0	0	0	2.3	0	0	0.1	1.7	0	3.4
COc1ccc(CCc2nc3cc(-c4c(C)noc4C)ccc3n2C[C@H](C)N2CCOCC2)cc1Cl [SGC-CBP30]	6.6	3.7	3.1	1.7	6.1	3.4	5.7	11	2	2.9	6.6	0.2
CN1CCC(CNc2ccc3ncc(-c4cccc(OC(F)(F)F)c4)n3n2)CC1 [SGI-1776]	7.7	5.1	4.7	5.2	7.2	5.6	6	8	3.3	6.9	5.1	4.3
CN(CC(=O)N(Cc1ccc(C2CCCCC2)cc1)c1ccc(C(=O)O)cc1)S(=O)(=O)c1c(F)c(F)c(F)c(F)c1F [SH-4-54]	5.7	8.1	5.1	5.2	7.5	7.4	5.8	7.5	6.2	5.2	6.6	4.5
CCc1c2c(nc3ccc(O)cc13)-c1cc3c(c(=O)n1C2)COC(=O)[C@]3(O)CC [SN-38]	21.2	37.9	13.8	25.2	36.4	24.6	28.6	37.3	14.4	24	14.6	16.8
CC(C)(C)c1cnc(CSc2cnc(NC(=O)C3CCNCC3)s2)o1 [SNS-032]	18.9	16.2	11	23.3	12.1	16.1	20	21.2	13.9	18.5	15.8	13.9
Cc1cc2c(C(=O)NC[C@H](C)c3ccccc3)c(O)c(O)cc2c(O)c1-c1c(C)cc2c(C(=O)NC[C@H](C)c3ccccc3)c(O)c(O)cc2c1O [Sabutoclax]	8.2	15.4	8.8	8.1	16.1	11.2	15.9	18	8.3	10.8	6.7	9
CC[C@@H](C(=O)[C@@H](C)[C@@H](O)[C@H](C)[C@@H]1O[C@@H]([C@@H](CC)C(=O)O)CC[C@@H]1C)[C@H]1O[C@]2(C=C[C@@H](O)[C@]3(CC[C@@](C)([C@H]4CC[C@](O)(CC)[C@H](C)O4)O3)O2)[C@H](C)C[C@@H]1C [Salinomycin]	27.1	15.4	13.4	18.3	22.1	19.4	17.9	21.2	14.2	13.2	21	8.2
CC(C)n1nc(-c2ccc3oc(N)nc3c2)c2c(N)ncnc21 [Sapanisertib]	14.6	8.4	8.2	7.4	10.9	15.2	9.8	13	10.7	12.4	8.9	3.2
CNC(=O)CN1CCC(Oc2cc3c(Nc4cccc(Cl)c4F)ncnc3cc2OC)CC1 [Sapitinib]	0.7	6.8	0	0	0	0	0	0	0	1.7	0	0
CN1CCN(CCOc2cc(OC3CCOCC3)c3c(Nc4c(Cl)ccc5c4OCO5)ncnc3c2)CC1 [Saracatinib]	7	8.2	0.4	3.1	5	5	5.1	2	3.8	9.2	9.7	5.6
CC1=C2C[C@H]3[C@@H](CC[C@@H]4C[C@H](NS(C)(=O)=O)CC[C@@]43C)[C@@H]2CC[C@@]2(C1)O[C@@H]1C[C@H](C)CN[C@H]1[C@H]2C [Saridegib]	0	0.5	0	0	0.1	0	0.4	2.3	0	0	0	0
O=C(/C=C\n1cnc(-c2cc(C(F)(F)F)cc(C(F)(F)F)c2)n1)NNc1cnccn1 [Selinexor]	16.5	18.7	8.2	13.9	9.3	8.2	17.4	29	10.7	15.3	8.1	7.9
Cc1cc(F)c(C(=O)Nc2cccc(-c3nncn3C(C)C)n2)cc1-n1cnc(C2CC2)c1 [Selonsertib]	0	0	0	0	0	0.1	0	0	0	0	0	0
Cn1cnc2c(F)c(Nc3ccc(Br)cc3Cl)c(C(=O)NOCCO)cc21 [Selumetinib]	11.1	11.2	0	5.4	0	20.1	2.1	0.2	4.2	11.2	5.4	5.8
CN1CCN(C(=O)c2ccc3cc(CCNc4ncnc5ccc(C#N)cc45)ccc3c2)CC1 [Senexin B]	1.3	0.2	0	0	0	0.5	0.2	0	1.1	1.7	2.6	0
Nc1nc2cc(-c3ccc4ncc(C(=O)N5CCOCC5)n4c3)ccc2o1 [Serabelisib]	0.8	2.9	0	0	5.1	0.1	0	0	0	1.8	0	0
O=C(O)c1ccc2c(c1)nc(Nc1cccc(Cl)c1)c1ccncc12 [Silmitasertib]	4.7	8.6	3.2	4.4	4.5	5.8	4.7	7.7	3.3	5.3	5.5	0.9
